Reference: patent US9738610B2, “Indazole derivatives and uses thereof” (Whitehead Institute for Biomedical Research, priority 2012, dated 2017)
Read-outs that look alike come from different tables or passages of the source.

Legend:
C. albicans CaCi-2 = test: CaCi-2 growth inhibition in the presence of 8 μg/ml fluconazole (Alamar Blue); assay type: cell-based, Candida albicans; conditions: Candida albicans
C. albicans CaCi-8 = test: microbe, parasite or virus in culture; assay type: cell-based, Candida albicans; conditions: Candida albicans
Method in brief: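 Hits tested for chemosensitization of the fluconazole-resistant CaCi-8 strain, for inherent antifungal activity without fluconazole, and for mammalian fibroblast toxicity by fluorescence reporter. Geldanamycin plus fluconazole served as positive control; a Saccharomyces assay assigned mechanism to Hsp90, calcineurin or other pathways.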

[1] = tested on: NIH-3T3 mammalian fibroblasts; test: Counterscreen mammalian cell toxicity assay (fibroblast toxicity); assay type: cell-based, murine; conditions: for IC50: Mus musculus
Plasma stability = conditions: % remaining in human plasma after a 5-hour incubation
PBS stability assay = assay type: physicochemical; conditions: 48-hour incubation, 23° C.
Plasma protein binding = conditions: human, plasma
Hsp90 = Hsp90 binning reporter assay; assay type: cell-based; conditions: Saccharomyces cerevisiae, read-out: Hsp90 pathway inhibition IC50
Procedure: Corning white, 384-well plates were obtained from Corning (Catalog No. 8867BC; Lot No. 22609019). Tropix Gal-Screen was obtained from Applied Biosystems (Catalog No. T2359; Lot No. 0903044).
SD Growth Media was obtained from MP Biomedical (Catalog No. 4027-012; Lot No. 119458). Complete Supplement minus adenine was obtained from Sunrise Science (Catalog No. 1029-100; Lot No. 070409). Deoxycorticosterone (DOC) steroid was obtained from Sigma. To prepare the assay media, 100 ml (20% (w/v) dextrose and 780 mg Complete Supplement) was added to 100 ml SD Growth Media. Water was added to a final volume of 1 liter, and the solution was filter sterilized.
For DOC media, 1 ml DOC was added to 100 ml SD-ADE media.
The following test strain was used in this study: Saccharomyces cerevisiae W303 reporter strain (ATCC 201238). […]
The OD 600 of 1 ml of culture in a cuvette was read using a standard optical density reader with growth medium as a background blank. […] Luminescence of the wells was read on a standard plate reader as a measure of relative fungal growth. Envision (Perkin Elmer) plate reader set-up: Top read; Luminescence filter (560 nm) at 0.1 seconds.
Potential inhibition of the Hsp90-based chaperone machinery was evaluated using yeast reporter assays involving the glucocorticoid hormone receptor and the tyrosine kinase, v-Src. […]

COC(=O)Cn1nc(-c2cccc(OC)c2)c2ccccc21 [Compound I-4, methyl 2-(3-(3-methoxyphenyl)-1H-indazol-1-yl)acetate]
IC50 (C. albicans CaCi-2; CACI2, read-out: CaCi-2 IC50 with 8 μg/ml fluconazole): 440 nM | IC50 (C. albicans CaCi-2; CACI2, read-out: CaCi-2 growth inhibition IC50 (nM)): 440 nM | IC50 (C. albicans CaCi-8; CACI8, read-out: CaCi-8 IC50 with 8 μg/ml fluconazole, Table 12): 1200 nM | IC50 (C. albicans CaCi-8; CACI8, read-out: CaCi-8 growth inhibition IC50 (nM), in the presence of fluconazole): 1210 nM | Dose-dependent activity against murine 3T3 fibroblasts [1]: inactive | Mammalian fibroblast IC50 relative to CaCi-2 IC50 with fluconazole [1]: >59-fold | IC50 ([1]; NIH3T3, read-out: Fibroblast toxicity IC50 (nM)): > 26000 nM | IC50 ([1]; NIH3T3, read-out: IC50 in the mammalian fibroblast assay): > 26000 nM | Fold Selective* (Anti-target IC50/Target IC50) ([1]; fibroblast toxicity vs CaCi-2 growth inhibition): 59 | Plasma Stability (Plasma stability): approximately 3% | Stability in PBS solution, remaining (PBS stability assay): > 99% | fraction unbound (Plasma protein binding): 0.05 | IC50 (Hsp90): 4180 nM
